The values that follow come from US20220313715A1, “PHARMACEUTICAL COMPOSITION, FOR PREVENTING OR TREATING HEPATIC FIBROSIS, COMPRISING 8-OHDG” (GIL MEDICAL CENTER, priority 2016, published 2022).

For experiment [1], the system named is NOX2. The experiment in a line: Immunofluorescent staining of NOX2 in liver tissue of liver fibrosis animal model. The experiment is classed as in vivo, Sprague-Dawley rats. The note with it: BDL rats, 60 mg/kg/day for 3 weeks vs Experimental Group 1, FIG. 3d. An excerpt:
(§1) 250 g to 300 g male Sprague-Dawley rats were subject to bile duct ligation (BDL) and atresia of bile duct to prepare liver fibrosis animal models. Six of the animal models were laparotomized, and the proximal and distal bile ducts were ligated and then cut in the middle to separate the bile duct. The animal models were then sutured and allowed to recover to be used for Experimental Group 1. Six animal models treated in the same manner as experimental group 1 were sutured and administered with 8-OHdG in the amount of 60 mg/kg/day for 3 weeks to be used for Experimental Group 2. The animal models of each of the control and experimental groups were sutured and raised for 3 weeks, followed by taking blood and liver tissues therefrom to be used for subsequent experimental procedures.

Experiment [2] deals with NOX1. The experiment in a line: Immunofluorescent staining of NOX1 in liver tissue of liver fibrosis animal model. The experiment is classed as in vivo, Sprague-Dawley rats. The settings on record: BDL rats, 60 mg/kg/day for 3 weeks vs Experimental Group 1, FIG. 3c.
Source text: as §1

The subject of the next experiment is TGF-β. The experiment in a line: qPCR mRNA level of TGF-β in liver tissue of liver fibrosis animal model. The class given is in vivo, Sprague-Dawley rats. The settings on record: BDL rats, 60 mg/kg/day for 3 weeks vs Experimental Group 1, GAPDH internal control, FIG. 2a.
Source text: as §1, with “procedures. […]” for “procedures.”
In general terms: Real-time PCR tracks product formation cycle by cycle.

For experiment [3], the system named is α-SMA. The experiment in a line: Western blot of α-SMA protein in liver tissue of liver fibrosis animal model. The experiment is classed as in vivo, Sprague-Dawley rats. The note with it: BDL rats, 60 mg/kg/day for 3 weeks vs Experimental Group 1, GAPDH internal control, FIG. 3b.
Source text: as §1, with “procedures. […] GAPDH protein was used as an internal control.” for “procedures.”

The next experiment has as its system Collagen Iα1. The experiment in a line: qPCR mRNA level of collagen in liver tissue of liver fibrosis animal model. The experiment is classed as in vivo, Sprague-Dawley rats. The settings on record: BDL rats, 60 mg/kg/day for 3 weeks vs Experimental Group 1, FIG. 2c.
Source text: as §1, with “procedures. […]” for “procedures.”

Experiment [4] concerns NOX1. The experiment in a line: qPCR mRNA level of NOX1 in liver tissue of liver fibrosis animal model. The experiment is classed as in vivo, Sprague-Dawley rats. The note with it: BDL rats, 60 mg/kg/day for 3 weeks vs Experimental Group 1, FIG. 2e.
Source text: as §1, with “procedures. […]” for “procedures.”

In experiment [5] the test system is NOX2. The experiment in a line: qPCR mRNA level of NOX2 in liver tissue of liver fibrosis animal model. The experiment is classed as in vivo, Sprague-Dawley rats. The note with it: BDL rats, 60 mg/kg/day for 3 weeks vs Experimental Group 1, FIG. 2f.
Source text: as §1, with “procedures. […]” for “procedures.”

For a further experiment, the target named is RAC1 (Homo sapiens, UniProt P63000). The settings on record: binds to RAC1-GTP through competition with GTP; leads to inhibition of activity of NOX complex; cited from earlier work.
The test system of the next experiment is TIMP-1. The experiment in a line: qPCR mRNA level of TIMP-1 in liver tissue of liver fibrosis animal model. The experiment is classed as in vivo, Sprague-Dawley rats. The note with it: BDL rats, 60 mg/kg/day for 3 weeks vs Experimental Group 1, FIG. 2b.
Source text: as §1, with “procedures. […]” for “procedures.”

Experiment [6] deals with α-SMA. The experiment in a line: qPCR mRNA level of α-SMA in liver tissue of liver fibrosis animal model. The class given is in vivo, Sprague-Dawley rats. The note with it: BDL rats, 60 mg/kg/day for 3 weeks vs Experimental Group 1, FIG. 2d.
Source text: as §1, with “procedures. […]” for “procedures.”

Experiment [7] deals with α-SMA. The experiment in a line: Immunofluorescent staining of α-SMA (hepatic stellate cell activity index) in liver tissue of liver fibrosis animal model. The experiment is classed as in vivo, Sprague-Dawley rats. The settings on record: BDL rats, 60 mg/kg/day for 3 weeks vs Experimental Group 1; immunofluorescent co-staining with NOX1 (FIG. 3c) or NOX2 (FIG. 3d).
Source text: as §1

In the next experiment the test system is hydroxyproline. Kind of experiment: Hydroxyproline level in liver tissue of bile duct ligation liver fibrosis animal model. The class given is in vivo, Sprague-Dawley rats. The settings on record: BDL rats, 8-OHdG 60 mg/kg/day for 3 weeks (Experimental Group 2) vs BDL only (Experimental Group 1); absorbance at 560 nm; FIG. 1.
Source text: as §1, with “models. […]” for “models.”

The next experiment relates to collagen. The experiment in a line: Picro Sirius Red staining of collagen in liver tissue of liver fibrosis animal model. The class given is in vivo, Sprague-Dawley rats. The settings on record: BDL rats, 60 mg/kg/day for 3 weeks vs Experimental Group 1; Picro Sirius Red stain, ImageJ; FIG. 3a.
Source text: as §1

As for `Nc1nc2c(nc(O)n2[C@H]2C[C@H](O)[C@@H](CO)O2)c(=O)[nH]1` [8-OHdG, 8-hydroxydeoxyguanosine], in the experiment with NOX2 [1], the “protein level of NOX2 in the liver tissue” value is given as “reduced”. Also, the “protein level of NOX1 in the liver tissue” value with NOX1 [2] is on record as “reduced”. The “mRNA level of TGF-β in the liver tissue” value with TGF-β was “reduced”. In the experiment with α-SMA [3], the “protein level of α-SMA in the liver tissue” value is “reduced”. In the experiment on Collagen Iα1, the “mRNA level of collagen in the liver tissue” value is reported as “reduced”. In addition, the “mRNA level of NOX1 in the liver tissue” value in the experiment on NOX1 [4] is listed as “reduced”. In the experiment on NOX2 [5], the “mRNA level of NOX2 in the liver tissue” value is recorded as “reduced”. For the same compound, the RAC1 activation entry on RAC1 was “inhibits”. Besides, the “mRNA level of TIMP-1 in the liver tissue” value in the experiment on TIMP-1 is recorded as “reduced”. Also, the “mRNA level of α-SMA in the liver tissue” value in the experiment on α-SMA [6] is “reduced”. The “protein level of α-SMA used as a hepatic stellate cell activity index” value in the experiment with α-SMA [7] was “reduced”. In addition, the “level of hydroxyproline in the liver tissue” value with hydroxyproline was “reduced”. For the same compound, the “protein level of collagen in the liver tissue” value with collagen is given as “reduced”.
